pKi: −log10 of the molar value.

The experiment addresses DNA-PK (Homo sapiens, UniProt P78527). The experiment can be described thus: DNA-PK inhibition assay (standard radiometric 33P-ATP kinase assay). Type of experiment: biochemical. Particulars: 100 μM ATP, approx. 6 nM DNA-PK. Here is the method:
Compounds were screened for their ability to inhibit DNA-PK kinase using a standard radiometric assay. Briefly, in this kinase assay the transfer of the terminal ^33P-phosphate in ^33P-ATP to a peptide substrate is interrogated. The assay was carried out in 384-well plates to a final volume of 50 μL per well containing approximately 6 nM DNA-PK, 50 mM HEPES (pH 7.5), 10 mM MgCl2, 25 mM NaCl, 0.01% BSA, 1 mM DTT, 10 μg/mL sheared double-stranded DNA (obtained from Sigma), 0.8 mg/mL DNA-PK peptide (Glu-Pro-Pro-Leu-Ser-Gln-Glu-Ala-Phe-Ala-Asp-Leu-Trp-Lys-Lys-Lys, obtained from American Peptide), and 100 μM ATP.
Accordingly, compounds of the invention were dissolved in DMSO to make 10 mM initial stock solutions. Serial dilutions in DMSO were then made to obtain the final solutions for the assay. A 0.75 μL aliquot of DMSO or inhibitor in DMSO was added to each well, followed by the addition of ATP substrate solution containing ^33P-ATP (obtained from Perkin Elmer). The reaction was started by the addition of DNA-PK, peptide and ds-DNA. After 45 min, the reaction was quenched with 25 μL of 5% phosphoric acid. The reaction mixture was transferred to MultiScreen HTS 384-well PH plates (obtained from Millipore), allowed to bind for one hour, and washed three times with 1% phosphoric acid. Following the addition of 50 μL of Ultima Gold™ high efficiency scintillant (obtained from Perkin Elmer), the samples were counted in a Packard TopCount NXT Microplate Scintillation and Luminescence Counter (Packard BioScience). The Ki values were calculated using Microsoft Excel Solver macros to fit the data to the kinetic model for competitive tight-binding inhibition.
In general, pKi refers to −log10 of the Ki, conventionally taken in molar units. A high value points to a low Ki. As to `Cc1ccnc(N[C@H]2CC[C@@H](Oc3cc(N4CCOCC4)cc4nccnc34)CC2)n1` [Compound 246], the pKi was over 7.00. As for `CC(C)Oc1cnc(N[C@H]2CC[C@@H](Oc3cc(N4CCOCC4)cc4nccnc34)CC2)nc1` [Compound 247], the pKi was over 7.00.

For `c1ccc(N[C@H]2CC[C@@H](Oc3cc(N4CCOCC4)cc4nccnc34)CC2)nc1` [Compound 254], the pKi was over 7.00.

Regarding `Cc1ccc(N[C@H]2CC[C@@H](Oc3cc(N4CCOCC4)cc4nccnc34)CC2)nc1` [Compound 256], the pKi is over 7.00. For `COc1ccc(N[C@H]2CC[C@@H](Oc3cc(N4CCOCC4)cc4nccnc34)CC2)nn1` [Compound 260], the pKi is over 7.00. For the compound `COCCNc1cc(N[C@H]2CC[C@@H](Oc3cc(N4CCOCC4)cc4nccnc34)CC2)ncn1` [Compound 263], the pKi is over 7.00. For `CC(C)(CO)Nc1ccnc(N[C@H]2CC[C@@H](Oc3cc(N4CCOCC4)cc4nccnc34)CC2)n1` [Compound 264], the negative-log Ki (pKi) was over 7.00. Regarding `Cc1cc(N[C@H]2CC[C@@H](Oc3cc(N4CCOCC4)cc4nccnc34)CC2)ncn1` [Compound 265], the pKi was over 7.00. For the compound `c1cc(N[C@H]2CC[C@@H](Oc3cc(N4CCOCC4)cc4nccnc34)CC2)nc(C2CC2)n1` [Compound 267], the negative-log Ki (pKi) was over 7.00. Next, `COc1nccc(N[C@H]2CC[C@@H](Oc3cc(N4CCOCC4)cc4nccnc34)CC2)n1` [Compound 268]: over 7.00; `CN(C)c1nc(N[C@H]2CC[C@@H](Oc3cc(N4CCOCC4)cc4nccnc34)CC2)ncc1F` [Compound 269]: over 7.00; `c1cncc(N[C@H]2CC[C@@H](Oc3cc(N4CCOCC4)cc4nccnc34)CC2)c1` [Compound 272]: over 7.00. The figure for `c1cc(N[C@H]2CC[C@@H](Oc3cc(N4CCOCC4)cc4nccnc34)CC2)ccn1` [Compound 273] is over 7.00; for `Cc1nc(N[C@H]2CC[C@@H](Oc3cc(N4CCOCC4)cc4nccnc34)CC2)cc(N2CCN(C)CC2)n1` [Compound 275] it is over 7.00. `COc1cc(C)nc(N[C@H]2CC[C@@H](Oc3cc(N4CCOCC4)cc4nccnc34)CC2)n1` [Compound 276] had a pKi of over 7.00. For the compound `Fc1c(Cl)ncnc1N[C@H]1CC[C@@H](Oc2cc(N3CCOCC3)cc3nccnc23)CC1` [Compound 277], the pKi was over 7.00. Compound `C[C@H](CO)Nc1ncnc(N[C@H]2CC[C@@H](Oc3cc(N4CCOCC4)cc4nccnc34)CC2)c1F` [Compound 380] showed a pKi of over 7.00. The compound `COC(=O)c1cc(N[C@H]2CC[C@@H](Oc3cc(N4CCOCC4)cc4nccnc34)CC2)ncc1OC(C)(C)C` [Compound 407] gave a pKi of over 7.00. In turn, `Cc1ccc(N[C@H]2CC[C@@H](Oc3cc(N4CCOCC4)cc4nccnc34)CC2)nn1` [Compound 450] had a pKi of over 7.00. Consider `COC(=O)c1cc(C)nc(N[C@H]2CC[C@@H](Oc3cc(N4CCOCC4)cc4nccnc34)CC2)n1` [Compound 565], for which the negative logarithm of the Ki (pKi) was over 7.00. In turn, `Cc1cnc(N[C@H]2CC[C@@H](Oc3cc(N4CCOCC4)cc4nccnc34)CC2)nc1N1CCCCC1` [Compound 567] gave a pKi of over 7.00. The figure for `COc1nc(C)nc(N[C@H]2CC[C@@H](Oc3cc(N4CCOCC4)cc4nccnc34)CC2)n1` [Compound 604] is over 7.00; for `Clc1nc(N[C@H]2CC[C@@H](Oc3cc(N4CCOCC4)cc4nccnc34)CC2)nc(C2CC2)n1` [Compound 605] it is over 7.00; for `CCOc1ncc(F)c(N[C@H]2CC[C@@H](Oc3cc(N4CCOCC4)cc4nccnc34)CC2)n1` [Compound 607] it is over 7.00. Compound `CCOc1cc(N[C@H]2CC[C@@H](Oc3cc(N4CCOCC4)cc4nccnc34)CC2)nc(C)n1` [Compound 644] gave a pKi of over 7.00.

The values above are taken from US12121524B2, “DNA-PK inhibitors” (VERTEX PHARMACEUTICALS INCORPORATED, priority 2018, dated 2024).
